Measurements as given in US20160340322A1 (NISSAN CHEMICAL INDUSTRIES, LTD., priority 2013, published 2016).

Biological target: T1, Human T-type calcium channel (Cav 3.2) (Homo sapiens, UniProt O95180)
T1 construct: Edward Perez-Reyes, University of Virginia, USA; host or cells: HEK293
Assay: Calcium Influx Inhibition Assay
Type: cell-based
Settings: human T-type calcium channel (Cav 3.2) expressing HEK293 cells; FLIPR Calcium 4 fluorescence; 30 min compound incubation; read-out: T-type calcium channel inhibition concentration IC50
Experimental: 1. Calcium Influx Inhibition Assay Human T-type calcium channel (Cav 3.2) expressing HEK293 cells were introduced from Prof. Edward Perez-Reyes, University of Virginia, USA. The calcium-sensitive fluorescent dye used was FLIPR Calcium 4 Assay Kit (Molecular Devices). To a black 96-well plate with a clear bottom coated with type I collagen, the human T-type calcium channel (Cav 3.2) expressing HEK293 cells were seeded and cultured overnight, and the culture medium was removed. A solution of the calcium-sensitive fluorescent dye was added, and the resultant plate was incubated at 37° C. in an atmosphere of 5% carbon dioxide for 30 minutes. To the plate, a diluted solution of a compound was added, and subjected to further incubation at 37° C. in an atmosphere of 5% carbon dioxide for 30 minutes. While fluorescence was continuously analyzed from the bottom with a FlexStation 3 (Molecular Devices), a calcium solution was added. […] Based on the rise value in the fluorescence from the base line, the inhibition percentage was calculated. The logarithms of compound concentrations were plotted with respect to the inhibition activities to obtain an IC50 value.

T1 sequence (O95180 whole entry): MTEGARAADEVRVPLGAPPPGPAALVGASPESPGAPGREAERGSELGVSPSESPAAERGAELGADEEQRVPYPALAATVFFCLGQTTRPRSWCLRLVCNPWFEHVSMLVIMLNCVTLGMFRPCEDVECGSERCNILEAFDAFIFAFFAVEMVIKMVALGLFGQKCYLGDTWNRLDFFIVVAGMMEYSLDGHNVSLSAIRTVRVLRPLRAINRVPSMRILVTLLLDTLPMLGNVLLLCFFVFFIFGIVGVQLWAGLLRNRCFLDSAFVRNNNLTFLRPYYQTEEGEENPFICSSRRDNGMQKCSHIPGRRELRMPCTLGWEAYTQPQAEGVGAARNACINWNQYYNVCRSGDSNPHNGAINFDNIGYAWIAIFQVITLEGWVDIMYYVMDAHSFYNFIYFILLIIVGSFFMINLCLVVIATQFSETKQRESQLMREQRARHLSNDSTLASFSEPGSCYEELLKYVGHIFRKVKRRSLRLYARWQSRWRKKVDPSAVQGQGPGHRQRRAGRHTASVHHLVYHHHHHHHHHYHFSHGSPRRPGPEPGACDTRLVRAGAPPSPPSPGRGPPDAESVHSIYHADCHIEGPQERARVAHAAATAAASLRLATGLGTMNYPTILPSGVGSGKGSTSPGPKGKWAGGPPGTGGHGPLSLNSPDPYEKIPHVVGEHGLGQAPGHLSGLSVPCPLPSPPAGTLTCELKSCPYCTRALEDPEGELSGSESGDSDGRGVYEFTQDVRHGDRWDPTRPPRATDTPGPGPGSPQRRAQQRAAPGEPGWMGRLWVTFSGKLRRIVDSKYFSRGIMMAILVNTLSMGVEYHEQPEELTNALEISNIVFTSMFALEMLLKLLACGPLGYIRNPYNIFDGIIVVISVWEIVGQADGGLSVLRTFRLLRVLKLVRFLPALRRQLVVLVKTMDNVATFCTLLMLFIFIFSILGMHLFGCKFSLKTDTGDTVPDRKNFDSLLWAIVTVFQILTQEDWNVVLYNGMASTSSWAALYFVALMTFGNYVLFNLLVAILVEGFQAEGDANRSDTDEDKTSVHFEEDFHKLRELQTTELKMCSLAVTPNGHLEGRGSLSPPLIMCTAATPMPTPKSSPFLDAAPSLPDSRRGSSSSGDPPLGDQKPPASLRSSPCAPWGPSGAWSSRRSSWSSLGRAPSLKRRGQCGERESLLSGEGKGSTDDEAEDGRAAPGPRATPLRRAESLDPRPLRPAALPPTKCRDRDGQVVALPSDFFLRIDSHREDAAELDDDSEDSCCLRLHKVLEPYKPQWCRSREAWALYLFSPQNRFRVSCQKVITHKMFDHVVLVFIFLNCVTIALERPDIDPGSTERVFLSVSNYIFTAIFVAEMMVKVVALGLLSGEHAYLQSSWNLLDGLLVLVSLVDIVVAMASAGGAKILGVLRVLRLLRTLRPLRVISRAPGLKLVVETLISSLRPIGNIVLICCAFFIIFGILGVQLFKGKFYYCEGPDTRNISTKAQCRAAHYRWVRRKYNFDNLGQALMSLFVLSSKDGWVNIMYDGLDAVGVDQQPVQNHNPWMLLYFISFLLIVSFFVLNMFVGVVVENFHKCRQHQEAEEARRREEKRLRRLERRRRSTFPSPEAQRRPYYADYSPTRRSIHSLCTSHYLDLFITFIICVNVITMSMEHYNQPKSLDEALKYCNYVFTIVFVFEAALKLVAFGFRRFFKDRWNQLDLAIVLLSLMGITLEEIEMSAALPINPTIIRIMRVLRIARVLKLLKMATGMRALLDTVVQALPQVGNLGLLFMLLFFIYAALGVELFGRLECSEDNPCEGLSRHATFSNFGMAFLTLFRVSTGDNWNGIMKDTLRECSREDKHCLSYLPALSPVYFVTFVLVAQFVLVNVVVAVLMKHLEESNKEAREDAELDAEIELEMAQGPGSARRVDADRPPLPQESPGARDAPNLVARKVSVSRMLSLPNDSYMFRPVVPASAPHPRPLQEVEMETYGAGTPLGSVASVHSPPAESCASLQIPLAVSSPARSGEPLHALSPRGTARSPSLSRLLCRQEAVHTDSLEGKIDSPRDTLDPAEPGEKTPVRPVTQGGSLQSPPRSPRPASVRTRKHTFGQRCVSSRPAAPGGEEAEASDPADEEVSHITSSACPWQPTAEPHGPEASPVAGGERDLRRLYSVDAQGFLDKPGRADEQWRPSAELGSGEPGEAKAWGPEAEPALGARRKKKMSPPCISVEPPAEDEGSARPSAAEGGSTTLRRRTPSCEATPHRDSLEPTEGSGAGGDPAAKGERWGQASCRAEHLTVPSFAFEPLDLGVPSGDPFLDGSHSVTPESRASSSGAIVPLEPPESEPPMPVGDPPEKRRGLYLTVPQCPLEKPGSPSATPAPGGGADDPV

- IC50: 69 nM
Compound: Cc1cc(N2CCN(c3cnn(Cc4ccc(C(F)(F)F)s4)c(=O)n3)CC2)cs1 [Synthesis Example 40, 5-[4-(5-Methylthiophen-3-yl)piperazin-1-yl]-2-{[5-(trifluoromethyl)thiophen-2-yl]methyl}-1,2,4-triazin-3(2H)-one]
